The source of these data is US20250302821A1, “SYNERGISTIC ANTIFUNGAL COMPOSITION AND METHOD” (ST. JUDE CHILDREN'S RESEARCH HOSPITAL, INC., priority 2022, published 2025).

The test system of assay [1] is resistant Candida auris strains. The settings on record: with fluconazole, voriconazole, itraconazole, cited from earlier work.
Assay [2] has as its system fungi. Kind of assay: fungicidal activity of NK1-antagonists alone. The assay is classed as cell-based. As to conditions: NK1-antagonist alone, at higher concentrations.

`C[C@@H](O[C@H]1OCCN(Cc2nc(=O)[nH][nH]2)[C@H]1c1ccc(F)cc1)c1cc(C(F)(F)F)cc(C(F)(F)F)c1` [aprepitant, 5-[[(2R,3S)-2-[(1R)-1-[3,5-bis(trifluoromethyl)phenyl]ethoxy]-3-(4-fluorophenyl)-4-morpholinyl]methyl]-1,2-dihydro-3H-1,2,4-triazol-3-one]: in assay [1] (C. auris), the “synergistic enhancement of triazole antifungal activity” value is “synergistically enhance the activity”. For the same compound, in assay [1] (several resistant Candida auris strains), the “restoration of triazole susceptibility” value is “restore fluconazole-, voriconazole-, and itraconazole-susceptibility”.
Consider `Cc1ccccc1-c1cc(N2CCN(C)CC2)ncc1N(C)C(=O)C(C)(C)c1cc(C(F)(F)F)cc(C(F)(F)F)c1` [netupitant, 2-[3,5-bis(trifluoromethyl)phenyl]-N, 2-dimethyl-N-[4-(2-methylphenyl)-6-(4-methylpiperazin-1-yl)pyridin-3-yl]propanamide], for which the independent fungicidal activity entry in assay [2] is recorded as “fungicidal activity”.
Still for that read-out and setting: the same measure for `C[C@@H](OC[C@@]1(c2ccccc2)CC[C@]2(CCC(=O)N2)CN1)c1cc(C(F)(F)F)cc(C(F)(F)F)c1` [rolapitant, (5S,8S)-8-[[(1R)-1-[3,5-bis(trifluoromethyl)phenyl]ethoxy]methyl]-8-phenyl-1,9-diazaspiro[4. 5]decan-2-one]: “fungicidal activity”.
